From patent US20250368616A1, “NITROGEN-CONTAINING HETEROCYCLIC DERIVATIVE INHIBITOR, AND PREPARATION METHOD THEREFOR AND USE THEREOF” (SHANGHAI HANSOH BIOMEDICAL CO., LTD., priority 2021, published 2025)

Legend:
[1] = biological target: EGFR L858R/T790M/C797S mutant kinase (Homo sapiens (Human), UniProt P00533, C797S/L858R/T790M); test: HTRF kinase assay, EGFR L858R/T790M/C797S mutant kinase; assay type: biochemical; settings: 120 minutes at room temperature
Description: (§1) Test Example 1. Determination of the Inhibitory Effect of the Compounds of the Present Invention on the Activity of EGFR del19/T790M/C797S and EGFR L858R/T790M/C797S Mutant Kinases
(§2) Experimental objective: The objective of this test example is to test the inhibitory activity of the compounds on the activity of EGFR del19/T790M/C797S and EGFR L858R/T790M/C797S mutant kinases.
(§3) Experimental method: This experiment used Cisbio's HTRF kinase assay method (Cisbio #62TK0PEB), wherein a catalytic reaction occurred between the substrate polypeptide TK and ATP in the presence of the tyrosine kinase with EGFR del19/T790M/C797S or EGFR L858R/T790M/C797S mutation, the substance was phosphorylated, and the activity of the kinase was characterized by measuring the content of the phosphorylated substrate generated during the reaction, and the half inhibitory concentration IC50 of the compound on the activity of EGFR del19/T790M/C797S or EGFR L858R/T790M/C797S mutant kinase was obtained.
(§4) Specific Experimental Operations were as Follows: • the kinase reaction was carried out in a white 384-well plate (Perkin Elmer #6008280), and 1-5 μL of compounds of different concentrations which were diluted with 1% DMSO-containing ddH2O were added; to the positive control wells were added 1-5 μL of 1% DMSO-containing ddH2O, followed by 1-5 μL of 0.5-5 nM 4×EGFR del19/T790M/C797S or EGFR L858R/T790M/C797S mutant kinase solution which was diluted with Dilution buffer (5× kinase buffer, MgCl2 6.65 Mm, MnCl2 1.33 mM, DTT 1.33 mM); to the negative control wells were added 1-5 μL of Dilution buffer; to all the wells were added 1-5 μL of 4 μM 4× substrate TK solution which was prepared with 10× Dilution buffer, and finally added 1-5 μL of 24 μM 4×ATP solution which was diluted with Dilution buffer to start the reaction; after reacting at room temperature for 120 minutes, 10 μL of detection solution (TK antibody 16 nM, XL665 0.5 μM) was added to each well, same was reacted at room temperature in the dark for 20 minutes, and then the […] was detected using a BioTek Synergy H1 microplate reader.
(§5) The percent inhibition data for compound-treated wells was calculated according to the positive control wells (DMSO control wells) and negative control wells (no kinase added) on the plate {% inhibition rate=100−[(test compound value−negative control value)]/(positive control value−negative control value)×100}. GraphPad prism was used to fit different concentrations and corresponding percent inhibition rate data to a 4-parameter nonlinear logistic equation to calculate IC50 values.

[2] = biological target: EGFR del19/T790M/C797S mutant kinase (Homo sapiens, UniProt P00533, C797S/DEL746-750/T790M); test: HTRF kinase assay, EGFR del19/T790M/C797S mutant kinase; assay type: biochemical; settings: 120 minutes at room temperature
EGFR del19/T790M/C797S mutant kinase, sequence (P00533 with tags, fused parts or gaps C797S/DEL746-750/T790M limits assumed): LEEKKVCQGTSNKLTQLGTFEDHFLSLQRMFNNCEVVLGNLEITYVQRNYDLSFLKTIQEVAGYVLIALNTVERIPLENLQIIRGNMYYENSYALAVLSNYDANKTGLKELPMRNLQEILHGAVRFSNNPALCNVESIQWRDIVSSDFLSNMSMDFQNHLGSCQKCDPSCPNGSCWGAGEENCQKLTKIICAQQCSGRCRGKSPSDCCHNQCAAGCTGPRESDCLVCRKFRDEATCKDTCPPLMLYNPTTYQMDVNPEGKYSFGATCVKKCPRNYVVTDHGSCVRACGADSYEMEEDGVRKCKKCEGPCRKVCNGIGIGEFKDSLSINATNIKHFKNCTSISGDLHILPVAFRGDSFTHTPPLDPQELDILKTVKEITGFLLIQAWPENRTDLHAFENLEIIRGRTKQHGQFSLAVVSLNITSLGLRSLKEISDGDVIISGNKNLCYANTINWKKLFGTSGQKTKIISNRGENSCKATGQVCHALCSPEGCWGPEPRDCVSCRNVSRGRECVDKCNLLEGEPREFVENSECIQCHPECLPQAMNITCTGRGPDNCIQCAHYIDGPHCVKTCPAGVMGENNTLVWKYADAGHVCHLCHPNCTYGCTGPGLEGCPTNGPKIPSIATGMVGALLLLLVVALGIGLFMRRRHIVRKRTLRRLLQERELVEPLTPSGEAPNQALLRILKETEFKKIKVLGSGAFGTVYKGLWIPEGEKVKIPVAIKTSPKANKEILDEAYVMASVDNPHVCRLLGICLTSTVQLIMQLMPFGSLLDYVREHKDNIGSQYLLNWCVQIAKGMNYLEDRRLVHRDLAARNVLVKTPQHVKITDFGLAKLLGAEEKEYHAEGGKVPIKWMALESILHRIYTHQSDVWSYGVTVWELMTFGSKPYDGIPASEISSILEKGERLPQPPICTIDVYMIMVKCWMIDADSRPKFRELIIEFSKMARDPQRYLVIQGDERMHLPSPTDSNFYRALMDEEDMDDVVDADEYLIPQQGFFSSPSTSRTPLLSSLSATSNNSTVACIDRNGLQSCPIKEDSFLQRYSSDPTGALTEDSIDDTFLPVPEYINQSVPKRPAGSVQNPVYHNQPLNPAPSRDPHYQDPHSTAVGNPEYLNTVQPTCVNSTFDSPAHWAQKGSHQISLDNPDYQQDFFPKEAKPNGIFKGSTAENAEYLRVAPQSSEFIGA
Description: as §1, §2, §3, §4, §5

[3] = system: Ba/F3 EGFR Del19/T790M/C797S cells; test: Cell proliferation inhibition assay (Cell Titer-Glo), Ba/F3 EGFR Del19/T790M/C797S; assay type: cell-based; settings: 72 hours, read-out: Ba/F3 EGFR Del19_T790M_C797S IC50
Description: Test Example 2: Cell Proliferation Inhibition Assay
Experimental objective: The objective of this test example is to test the inhibitory activity of compounds on the proliferation of different EGFR C797S drug-resistant mutant cell lines Ba/F3 EGFR Del19/T790M/C797S, Ba/F3 EGFR L858R/T790M/C797S, and Ba/F3 EGFR Del19/C797S.
• Ba/F3 EGFR Del19/T790M/C797S cells were purchased from KYinno Biotechnology Co., Ltd.; • Ba/F3 EGFR Del19/C797S cells were purchased from CoBioer Biosciences Co., Ltd.; • Ba/F3 EGFR L858R/T790M/C797S cells were purchased from CoBioer Biosciences Co., Ltd.; • Cell Titer-Glo was purchased from Promega, with a catalog number of G7573; • RPMI 1640 was purchased from Gibco, with a catalog number of 22400089; • FBS was purchased from Gibco, with a catalog number of 10091148; • cell culture plates were purchased from Corning, with a catalog number of 3610.
The inhibitory activity of the compound on the proliferation of different EGFR C797S drug-resistant mutant cell lines was detected using the Cell Titer-Glo method. The different cell lines were cultured in RPMI 1640 complete culture medium containing 10% FBS under conditions of 37° C. and 5% CO2, the cells were collected by centrifugation when growing to a certain density, and adjusted to appropriate cell density after counting, the cells were spread on a white 96-well plate at 90 μL/well, and cultured in a 37° C., 5% CO2 incubator overnight, prepared compound solutions of different concentrations were added at 10 μL/well, corresponding solvent controls were set, and all wells were cultured in a 37° C., 5% CO2 incubator for 72 hours, 50 μL of CellTiter-Glo solution was added to each well, shook and mixed evenly, and incubated in the dark for 10 minutes, and a BioTek Synergy H1 microplate reader was used for reading.
The luminescence signal value was used to calculate the inhibition rate. Graphpad Prism software was used to fit the concentration and inhibition rate to a nonlinear regression curve, so as to obtain the IC50 value, as shown in Tables 3 and 4 below for details.

[4] = system: Ba/F3 EGFR Del19/C797S cells; test: Cell proliferation inhibition assay (Cell Titer-Glo), Ba/F3 EGFR Del19/C797S; assay type: cell-based; settings: 72 hours, read-out: Ba/F3 EGFR Del19_C797S IC50
In short: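 Ba/F3 cells carrying EGFR Del19/T790M/C797S or Del19/C797S, grown in RPMI 1640 with 10% FBS, were plated overnight and then exposed to serially diluted compound for 72 h at 37° C, 5% CO2. Viability was read by CellTiter-Glo luminescence; IC50 came from a nonlinear fit of inhibition rate against concentration.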

EGFR L858R/T790M/C797S mutant kinase, sequence (P00533 25-1210 T790M/C797S/L858R): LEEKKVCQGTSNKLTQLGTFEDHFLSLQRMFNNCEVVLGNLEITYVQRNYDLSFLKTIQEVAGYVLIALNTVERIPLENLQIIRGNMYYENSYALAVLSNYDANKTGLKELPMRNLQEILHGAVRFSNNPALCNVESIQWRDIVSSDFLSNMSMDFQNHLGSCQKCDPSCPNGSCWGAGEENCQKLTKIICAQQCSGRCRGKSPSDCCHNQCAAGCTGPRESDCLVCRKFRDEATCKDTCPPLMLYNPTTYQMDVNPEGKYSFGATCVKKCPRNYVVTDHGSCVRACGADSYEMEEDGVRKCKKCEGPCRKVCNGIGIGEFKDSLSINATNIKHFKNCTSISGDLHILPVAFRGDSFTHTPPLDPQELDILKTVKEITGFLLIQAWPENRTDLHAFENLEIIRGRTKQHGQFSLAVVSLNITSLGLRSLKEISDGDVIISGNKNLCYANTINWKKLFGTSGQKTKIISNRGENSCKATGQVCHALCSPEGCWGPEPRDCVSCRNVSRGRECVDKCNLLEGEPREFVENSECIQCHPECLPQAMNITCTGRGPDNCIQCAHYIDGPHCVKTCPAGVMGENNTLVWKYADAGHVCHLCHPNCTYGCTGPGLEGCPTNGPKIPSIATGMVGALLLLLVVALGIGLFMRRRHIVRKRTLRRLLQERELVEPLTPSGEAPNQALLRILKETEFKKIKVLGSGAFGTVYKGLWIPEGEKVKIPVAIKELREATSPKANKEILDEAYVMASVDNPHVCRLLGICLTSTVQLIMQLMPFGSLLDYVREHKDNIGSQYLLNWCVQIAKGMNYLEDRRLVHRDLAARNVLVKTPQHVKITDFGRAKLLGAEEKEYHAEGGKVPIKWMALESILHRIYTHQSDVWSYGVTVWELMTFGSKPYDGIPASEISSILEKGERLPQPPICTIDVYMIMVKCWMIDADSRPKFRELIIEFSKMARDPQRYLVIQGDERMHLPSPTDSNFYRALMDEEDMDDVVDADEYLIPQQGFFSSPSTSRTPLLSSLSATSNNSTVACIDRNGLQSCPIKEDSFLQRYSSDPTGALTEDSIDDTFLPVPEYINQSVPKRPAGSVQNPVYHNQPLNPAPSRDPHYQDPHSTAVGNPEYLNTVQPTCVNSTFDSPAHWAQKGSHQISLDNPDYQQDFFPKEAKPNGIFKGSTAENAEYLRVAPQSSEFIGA

Compound | IC50 [1] | IC50 [2] | IC50 [3] | IC50 [4]
CC(C)c1ccc(N2C[C@H](CS(C)(=O)=O)[C@H]2C)c2cnc(Nc3ccnc(-c4cn[nH]c4)n3)cc12 [Example 17, N-(2-(1H-pyrazol-4-yl)pyrimidin-4-yl)-5-isopropyl-8-((2R,3S)-2-methyl-3-((methanesulfonyl)methyl)azetidin-1-yl)isoquinolin-3-amine] | 0.71 nM | 3 nM |  | 
CC(C)c1cnc(N2CC(CS(C)(=O)=O)C2)c2cnc(Nc3ccnc(-c4cnn(S(=O)(=O)C5CC5)c4)n3)cc12 [Example 3, N-(2-(1-(cyclopropylsulfonyl)-1H-pyrazol-4-yl)pyrimidin-4-yl)-5-isopropyl-8-(3-((methanesulfonyl)methyl)azetidin-1-yl)-2,7-diazanaphthalen-3-amine] |  | 9.4 nM | 5.5 nM | 10 nM
Cc1nn(C)cc1-c1nccc(Nc2cc3c(C(C)C)ccc(N4C[C@H](CS(=O)(=O)N(C)C)[C@H]4C)c3cn2)n1 [Example 61, 1-((2R,3S)-1-(3-((2-(1,3-dimethyl-1H-pyrazol-4-yl)pyrimidin-4-yl)amino)-5-isopropylisoquinolin-8-yl)-2-methylazetidin-3-yl)-N,N-dimethyl methanesulfonamide] |  |  | 9.1 nM | 24 nM
COCC1(Cn2cc(-c3nccc(Nc4cc5c(C(C)C)ccc(N6C[C@H](CS(C)(=O)=O)[C@H]6C)c5cn4)n3)cn2)CC1 [Example 66, 5-isopropyl-N-(2-(1-((1-(methoxymethyl)cyclopropyl)methyl)-1H-pyrazol-4-yl)pyrimidin-4-yl)-8-((2R,3S)-2-methyl-3-((methanesulfonyl)methyl)azetidin-1-yl)isoquinolin-3-amine] | 0.17 nM |  |  | 78 nM
CC(C)c1ccc(N2CC(N(C)S(C)(=O)=O)C2)c2cnc(Nc3ccnc(-c4cn(CCO)nc4Cl)n3)cc12 [Example 79, N-(1-(3-((2-(3-chloro-1-(2-hydroxyethyl)-1H-pyrazol-4-yl)pyrimidin-4-yl)amino)-5-isopropylisoquinolin-8-yl)azetidin-3-yl)-N-methyl Methanesulfonamide] |  |  | 7.7 nM | 11 nM
CC(C)c1ccc(N2C[C@H](CS(C)(=O)=O)[C@H]2C)c2cnc(Nc3ccnc(-c4cnn(CC(F)(F)F)c4)n3)cc12 [Example 26, 5-isopropyl-8-((2R,3S)-2-methyl-3-((methanesulfonyl)methyl)azetidin-1-yl)-N-(2-(1-(2,2,2-trifluoroethyl)-1H-pyrazol-4-yl)pyrimidin-4-yl)isoquinolin-3-amine] | 1 nM |  |  | 78 nM
CC(C)c1ccc(N2C[C@H](CS(C)(=O)=O)[C@H]2C)c2cnc(Nc3ccnc(-c4cnn(C(F)F)c4)n3)cc12 [Example 25, N-(2-(1-(difluoromethyl)-1H-pyrazol-4-yl)pyrimidin-4-yl)-5-isopropyl-8-((2R,3S)-2-methyl-3-((methanesulfonyl)methyl)azetidin-1-yl)isoquinolin-3-amine] |  |  | 14 nM | 54 nM
CC(C)c1ccc(N2C[C@H](N3CCOC3=O)[C@H]2C)c2cnc(Nc3ccnc(-c4cn(C)nc4Cl)n3)cc12 [Example 74, 3-((2R,3S)-1-(3-((2-(3-chloro-1-methyl-1H-pyrazol-4-yl)pyrimidin-4-yl)amino)-5-isopropylisoquinolin-8-yl)-2-methylazetidin-3-yl)oxazolidin-2-one] |  |  | 14 nM | 14 nM

Other lines, results leading:

IC50 [1] | IC50 [2] | IC50 [3] | IC50 [4] | Compound
0.92 nM | 6.2 nM |  |  | CC(C)c1ccc(N2C[C@H](CS(C)(=O)=O)[C@H]2C)c2cnc(Nc3ccnc(-c4cnn(C5COC5)c4)n3)cc12 [Example 20, 5-isopropyl-8-((2R,3S)-2-methyl-3-((methanesulfonyl)methyl)azetidin-1-yl)-N-(2-(1-(oxetan-3-yl)-1H-pyrazol-4-yl)pyrimidin-4-yl)isoquinolin-3-amine]
 |  | 11 nM | 8.5 nM | COCCn1cc(-c2nccc(Nc3cc4c(C(C)C)ccc(N5C[C@H](CS(C)(=O)=O)[C@H]5C)c4cn3)n2)c(Cl)n1 [Example 73, N-(2-(3-chloro-1-(2-methoxyethyl)-1H-pyrazol-4-yl)pyrimidin-4-yl)-5-isopropyl-8-((2R,3S)-2-methyl-3-((methanesulfonyl)methyl)azetidin-1-yl)isoquinolin-3-amine]
 |  | 11 nM | 10 nM | CC(C)c1ccc(N2C[C@H](CS(C)(=O)=O)[C@H]2C)c2cnc(Nc3ccnc(-c4cn(C5CC5)nc4Cl)n3)cc12 [Example 70, N-(2-(3-chloro-1-cyclopropyl-1H-pyrazol-4-yl)pyrimidin-4-yl)-5-isopropyl-8-((2R,3S)-2-methyl-3-((methanesulfonyl)methyl)azetidin-1-yl)isoquinolin-3-amine]
 |  | 12 nM | 27 nM | CC(C)c1ccc(N2C[C@H](CS(C)(=O)=O)[C@H]2C)c2cnc(Nc3ccnc(-c4cn(C5CCOCC5)nc4Cl)n3)cc12 [Example 78, N-(2-(3-chloro-1-(tetrahydro-2H-pyran-4-yl)-1H-pyrazol-4-yl)pyrimidin-4-yl)-5-isopropyl-8-((2R,3S)-2-methyl-3-((methanesulfonyl)methyl)azetidin-1-yl)isoquinolin-3-amine]
 |  | 10 nM | 17 nM | CC(O)Cn1cc(-c2nccc(Nc3cc4c(C(C)C)ccc(N5C[C@H](CS(C)(=O)=O)[C@H]5C)c4cn3)n2)c(Cl)n1 (stereo partly drawn) [Example 80, 1-(3-chloro-4-(4-((5-isopropyl-8-((2R,3S)-2-methyl-3-((methanesulfonyl)methyl)azetidin-1-yl)isoquinolin-3-yl)amino)pyrimidin-2-yl)-1H-pyrazol-1-yl)propan-2-ol]
 |  | 7.2 nM | 24 nM | CC(C)c1ccc(N2C[C@H](CS(C)(=O)=O)[C@H]2C)c2cnc(Nc3ccnc(-c4cn(CCO)nc4Cl)n3)cc12 [Example 11, 2-(3-chloro-4-(4-((5-isopropyl-8-((2R,3S)-2-methyl-3-((methanesulfonyl)methyl)azabut-1-yl)isoquinolin-3-yl)amino)pyrimidin-2-yl)-1H-pyrazol-1-yl)ethanol]
